Assay results reported in US20210045385A1, “PYRIDAZINONE-SUBSTITUTED KETOXIMES AS HERBICIDES” (FMC Corporation, priority 2018, published 2021).

Legend:
Format in all cases: in vivo
[1] = system: Italian ryegrass (Lolium multiflorum); experiment: Test A preemergence, visual plant response rating; conditions: for Ryegrass, Italian plant response rating (0 to 100 scale): approx. 10 days; for Ryegrass, Italian plant response rating: 125 g ai/ha, preemergence, 0 to 100 scale, 0 no effect, 100 complete control
Method in brief: (§1)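 Greenhouse pot test in loam–sand soil mix: compound in a surfactant-containing non-phytotoxic solvent applied preemergence (directed soil spray) or postemergence (one- to two-leaf plants, 2–10 cm). Injury scored visually after ~10 days, 0–100.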

[2] = system: barnyardgrass (Echinochloa crus-galli); experiment: Test A preemergence, visual plant response rating; conditions: for Barnyardgrass plant response rating (0 to 100 scale): approx. 10 days; for Barnyardgrass plant response rating: 125 g ai/ha, preemergence, 0 to 100 scale, 0 no effect, 100 complete control
Method in brief: as §1

[3] = system: foxtail, green (green foxtail, Setaria viridis); experiment: Test A preemergence, visual plant response rating; conditions: for Foxtail, Green plant response rating (0 to 100 scale): approx. 10 days; for Foxtail, Green plant response rating: 125 g ai/ha, preemergence, 0 to 100 scale, 0 no effect, 100 complete control
Method in brief: as §1

kochia (Kochia scoparia) [4] = experiment: Test A preemergence, visual plant response rating; conditions: for Kochia plant response rating (0 to 100 scale): approx. 10 days; for Kochia plant response rating: 125 g ai/ha, preemergence, 0 to 100 scale, 0 no effect, 100 complete control
Method in brief: as §1

[5] = system: pigweed (Amaranthus retroflexus); experiment: Test A preemergence, visual plant response rating; conditions: for Pigweed plant response rating (0 to 100 scale): approx. 10 days; for Pigweed plant response rating: 125 g ai/ha, preemergence, 0 to 100 scale, 0 no effect, 100 complete control
Method in brief: as §1

[6] = system: ragweed (common ragweed, Ambrosia elatior); experiment: Test A preemergence, visual plant response rating; conditions: for Ragweed plant response rating (0 to 100 scale): approx. 10 days; for Ragweed plant response rating: 125 g ai/ha, preemergence, 0 to 100 scale, 0 no effect, 100 complete control
Method in brief: as §1

[7] = system: Italian ryegrass (Lolium multiflorum); experiment: Test A postemergence, visual plant response rating; conditions: for Ryegrass, Italian plant response rating (0 to 100 scale): 500 g ai/ha, postemergence, 0 is no effect, 100 is complete control; for Ryegrass, Italian plant response rating: Postemergence, 125 g ai/ha, 0 to 100 scale (0 no effect, 100 complete control)
Method in brief: as §1

[8] = system: barnyardgrass (Echinochloa crus-galli); experiment: Test A postemergence, visual plant response rating; conditions: for Barnyardgrass plant response rating (0 to 100 scale): 500 g ai/ha, postemergence, 0 is no effect, 100 is complete control; for Barnyardgrass plant response rating: Postemergence, 125 g ai/ha, 0 to 100 scale (0 no effect, 100 complete control)
Method in brief: as §1

[9] = system: blackgrass (Alopecurus myosuroides); experiment: Test A postemergence, visual plant response rating; conditions: for Blackgrass plant response rating (0 to 100 scale): 500 g ai/ha, postemergence, 0 is no effect, 100 is complete control; for Blackgrass plant response rating: Postemergence, 125 g ai/ha, 0 to 100 scale (0 no effect, 100 complete control)
Method in brief: as §1

corn (Zea mays) = experiment: Test A postemergence, visual plant response rating; conditions: for Corn plant response rating (0 to 100 scale): 500 g ai/ha, postemergence, 0 is no effect, 100 is complete control; for Corn plant response rating: Postemergence, 125 g ai/ha, 0 to 100 scale (0 no effect, 100 complete control)
Method in brief: as §1

[10] = system: foxtail, green (green foxtail, Setaria viridis); experiment: Test A postemergence, visual plant response rating; conditions: for Foxtail, Green plant response rating (0 to 100 scale): 500 g ai/ha, postemergence, 0 is no effect, 100 is complete control; for Foxtail, Green plant response rating: Postemergence, 125 g ai/ha, 0 to 100 scale (0 no effect, 100 complete control)
Method in brief: as §1

[11] = system: galium (catchweed bedstraw, Galium aparine); experiment: Test A postemergence, visual plant response rating; conditions: for Galium plant response rating (0 to 100 scale): 500 g ai/ha, postemergence, 0 is no effect, 100 is complete control; for Galium plant response rating: Postemergence, 125 g ai/ha, 0 to 100 scale (0 no effect, 100 complete control)
Method in brief: as §1

kochia (Kochia scoparia) [12] = experiment: Test A postemergence, visual plant response rating; conditions: for Kochia plant response rating (0 to 100 scale): 500 g ai/ha, postemergence, 0 is no effect, 100 is complete control; for Kochia plant response rating: Postemergence, 125 g ai/ha, 0 to 100 scale (0 no effect, 100 complete control)
Method in brief: as §1

[13] = system: pigweed (Amaranthus retroflexus); experiment: Test A postemergence, visual plant response rating; conditions: for Pigweed plant response rating (0 to 100 scale): 500 g ai/ha, postemergence, 0 is no effect, 100 is complete control; for Pigweed plant response rating: Postemergence, 125 g ai/ha, 0 to 100 scale (0 no effect, 100 complete control)
Method in brief: as §1

[14] = system: ragweed (common ragweed, Ambrosia elatior); experiment: Test A postemergence, visual plant response rating; conditions: for Ragweed plant response rating (0 to 100 scale): 500 g ai/ha, postemergence, 0 is no effect, 100 is complete control; for Ragweed plant response rating: Postemergence, 125 g ai/ha, 0 to 100 scale (0 no effect, 100 complete control)
Method in brief: as §1

[15] = system: wheat (Triticum aestivum); experiment: Test A postemergence, visual plant response rating; conditions: for Wheat plant response rating (0 to 100 scale): 500 g ai/ha, postemergence, 0 is no effect, 100 is complete control; for Wheat plant response rating: Postemergence, 125 g ai/ha, 0 to 100 scale (0 no effect, 100 complete control)
Method in brief: as §1

[16] = system: barnyardgrass (Echinochloa crus-galli); experiment: Test B flooded paddy test, visual plant response rating; conditions: 250 g ai/ha, Flood, applied to paddy water, 2-leaf stage, evaluated after 13 to 15 days
Method in brief: (§2)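 Seedlings at 2 leaves; compound into paddy water (3 cm flood, maintained); 13–15 d greenhouse; visual score relative to controls.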

[17] = system: ducksalad (Heteranhera limosa); experiment: as above; conditions: 250 g ai/ha, Flood, applied to paddy water, 2-leaf stage, evaluated after 13 to 15 days
Method in brief: as §2

rice (Oryza sativa) = experiment: as above; conditions: 250 g ai/ha, Flood, applied to paddy water, 2-leaf stage, evaluated after 13 to 15 days
Method in brief: as §2

[18] = system: sedge, umbrella (small-flower umbrella sedge, Cyperus difformis); experiment: as above; conditions: 250 g ai/ha, Flood, applied to paddy water, 2-leaf stage, evaluated after 13 to 15 days
Method in brief: as §2

SMILES | Ryegrass, Italian plant response rating (0 to 100 scale) ([1]; 500 g ai/ha Preemergence) | Barnyardgrass plant response rating (0 to 100 scale) ([2]; 500 g ai/ha Preemergence) | Foxtail, Green plant response rating (0 to 100 scale) ([3]; 500 g ai/ha Preemergence) | Kochia plant response rating (0 to 100 scale) (kochia (Kochia scoparia) [4]; 500 g ai/ha Preemergence) | Pigweed plant response rating (0 to 100 scale) ([5]; 500 g ai/ha Preemergence) | Ragweed plant response rating (0 to 100 scale) ([6]; 500 g ai/ha Preemergence) | Ryegrass, Italian plant response rating (0 to 100 scale) [7] | Ryegrass, Italian plant response rating [7] | Barnyardgrass plant response rating (0 to 100 scale) [8] | Barnyardgrass plant response rating [8] | Blackgrass plant response rating (0 to 100 scale) [9] | Blackgrass plant response rating [9] | Corn plant response rating (0 to 100 scale) (corn (Zea mays)) | Corn plant response rating (corn (Zea mays)) | Foxtail, Green plant response rating (0 to 100 scale) [10] | Foxtail, Green plant response rating [10] | Galium plant response rating (0 to 100 scale) [11] | Galium plant response rating [11] | Kochia plant response rating (0 to 100 scale) (kochia (Kochia scoparia) [12]) | Kochia plant response rating (kochia (Kochia scoparia) [12]) | also measured
CO/N=C(/c1c(O)c(C)nn(C)c1=O)c1cccc2ccccc12 [Compound 31] | 70 | 70 | 90 | 90 | 90 | 80 | 90 | 60 | 90 | 40 | 90 | 80 | 50 | 20 | 80 | 50 | 90 | 90 | 80 | 70 | Ryegrass, Italian plant response rating (0 to 100 scale) ([1]; 125 g ai/ha Preemergence): 40; Barnyardgrass plant response rating (0 to 100 scale) ([2]; 125 g ai/ha Preemergence): 10; Foxtail, Green plant response rating (0 to 100 scale) ([3]; 125 g ai/ha Preemergence): 30; Kochia plant response rating (0 to 100 scale) (kochia (Kochia scoparia) [4]; 125 g ai/ha Preemergence): 10; Pigweed plant response rating (0 to 100 scale) ([5]; 125 g ai/ha Preemergence): 40; Ragweed plant response rating (0 to 100 scale) ([6]; 125 g ai/ha Preemergence): 30; Pigweed plant response rating (0 to 100 scale) [13]: 90; Pigweed plant response rating [13]: 60; Ragweed plant response rating (0 to 100 scale) [14]: 90; Ragweed plant response rating [14]: 70; Wheat plant response rating (0 to 100 scale) [15]: 20; Wheat plant response rating [15]: 0; Plant response rating, Barnyardgrass (0 to 100 scale, 0 is no effect, 100 is complete control) [16]: 25; Plant response rating, Ducksalad (0 to 100 scale, 0 is no effect, 100 is complete control) [17]: 0; Plant response rating, Rice (0 to 100 scale, 0 is no effect, 100 is complete control) (rice (Oryza sativa)): 40; Plant response rating, Sedge, Umbrella (0 to 100 scale, 0 is no effect, 100 is complete control) [18]: 0
CO/N=C(/c1ccccc1Cl)c1c(O)c(C)nn(C)c1=O [Compound 63] | 50 | 0 | 20 | 20 | 80 | 70 | 70 | 30 | 0 | 0 | 80 | 10 | 0 | 0 | 10 | 0 | 80 | 60 | 30 | 10 | Ryegrass, Italian plant response rating [1]: 10; Barnyardgrass plant response rating [2]: 0; Foxtail, Green plant response rating [3]: 0; Kochia plant response rating (kochia (Kochia scoparia) [4]): 0; Pigweed plant response rating [5]: 0; Ragweed plant response rating [6]: 30; Pigweed plant response rating (0 to 100 scale) [13]: 50; Pigweed plant response rating [13]: 30; Ragweed plant response rating (0 to 100 scale) [14]: 50; Ragweed plant response rating [14]: 30; Wheat plant response rating (0 to 100 scale) [15]: 20; Wheat plant response rating [15]: 0; Plant response rating, Barnyardgrass (0 to 100 scale, 0 is no effect, 100 is complete control) [16]: 0; Plant response rating, Ducksalad (0 to 100 scale, 0 is no effect, 100 is complete control) [17]: 0; Plant response rating, Rice (0 to 100 scale, 0 is no effect, 100 is complete control) (rice (Oryza sativa)): 0; Plant response rating, Sedge, Umbrella (0 to 100 scale, 0 is no effect, 100 is complete control) [18]: 0
CO/N=C(\c1cc(C)ccc1C)c1c(O)c(C)nn(C)c1=O [Compound 66] | 50 | 20 | 60 | 20 | 80 | 50 | 80 | 30 | 30 | 10 | 50 | 0 | 0 | 0 | 20 | 0 | 80 | 60 | 40 | 20 | Ryegrass, Italian plant response rating [1]: 30; Barnyardgrass plant response rating [2]: 0; Foxtail, Green plant response rating [3]: 30; Kochia plant response rating (kochia (Kochia scoparia) [4]): 0; Pigweed plant response rating [5]: 30; Ragweed plant response rating [6]: 20; Pigweed plant response rating (0 to 100 scale) [13]: 50; Pigweed plant response rating [13]: 50; Ragweed plant response rating (0 to 100 scale) [14]: 50; Ragweed plant response rating [14]: 40; Wheat plant response rating (0 to 100 scale) [15]: 10; Wheat plant response rating [15]: 0; Plant response rating, Barnyardgrass (0 to 100 scale, 0 is no effect, 100 is complete control) [16]: 0; Plant response rating, Ducksalad (0 to 100 scale, 0 is no effect, 100 is complete control) [17]: 0; Plant response rating, Rice (0 to 100 scale, 0 is no effect, 100 is complete control) (rice (Oryza sativa)): 0; Plant response rating, Sedge, Umbrella (0 to 100 scale, 0 is no effect, 100 is complete control) [18]: 0
CON=C(c1cccc(C)c1)c1c(O)c(Cl)nn(C)c1=O [Compound 128] | 20 | 30 | 10 | 80 | 80 | 80 | 10 | 0 | 30 | 10 | 10 | 0 | 0 | 0 | 30 | 20 | 90 | 70 | 70 | 50 | Ryegrass, Italian plant response rating [1]: 0; Barnyardgrass plant response rating [2]: 0; Foxtail, Green plant response rating [3]: 0; Kochia plant response rating (kochia (Kochia scoparia) [4]): 30; Pigweed plant response rating [5]: 100; Ragweed plant response rating [6]: 60; Pigweed plant response rating (0 to 100 scale) [13]: 60; Pigweed plant response rating [13]: 30; Ragweed plant response rating (0 to 100 scale) [14]: 80; Ragweed plant response rating [14]: 50; Wheat plant response rating (0 to 100 scale) [15]: 10; Wheat plant response rating [15]: 0; Plant response rating, Barnyardgrass (0 to 100 scale, 0 is no effect, 100 is complete control) [16]: 0; Plant response rating, Ducksalad (0 to 100 scale, 0 is no effect, 100 is complete control) [17]: 40; Plant response rating, Rice (0 to 100 scale, 0 is no effect, 100 is complete control) (rice (Oryza sativa)): 30; Plant response rating, Sedge, Umbrella (0 to 100 scale, 0 is no effect, 100 is complete control) [18]: 0
